Test results from patent publication US11491161B2, “Methods and compositions for treatment of pulmonary hypertension and other lung disorders” (Respira Therapeutics, Inc., priority 2016, dated 2022).
Counter-ions that a name gives are not always drawn.

What was measured:
[1] = particle size distribution of micronized drug substance by laser diffraction; format: physicochemical; settings: hydrochloride trihydrate
Excerpt: The coarse drug substance as received was forced into the milling chamber by a compressed air stream, through a Venturi tube with a higher pressure (P_vent) and metered into the mill at the desired rate (F-feed). Nitrogen was used as grinding gas and adjusted to the desired pressure (P_grind) to mill the drug particles. The micronized material was characterized for process yield gravimetrically, particle size distribution (PSD) by laser diffraction (Malvern Masersizer) and moisture content by Karl Fischer (KF) analysis. A finer micronized drug substance PSD as evidenced with smaller volume weighted median diameter (Dv50=1.8 μm) and linear interpolated size of the 90th percentile (Dv90=4.5 μm) was obtained using higher Venturi (P_Vent=7.5 bar) and grinding pressures (P_Grind=6 bar) as compared with a batch with a slightly coarser PSD of […] when using the jet mill operated at lower pressures (ca. P_Vent=5.5 bar and P_Grind=4.5 bar) (Table 1).

[2] = octanol-water partition coefficient; cited from earlier work
plasma proteins = settings: cited from earlier work
[3] = in vivo; cited from earlier work
PDE5 enzyme = PDE5 enzyme (Homo sapiens, UniProt O76074); settings: cited from earlier work
[4] = in vivo; cited from earlier work; remark: listed apart in the source
human patients with PAH = settings: 5 mg orally twice per day (b.i.d.); cited from earlier work
[5] = inhaled, following pulmonary administration; peak at first time-point tested; cited from earlier work

SMILES	log P [2]	protein binding in the systemic circuit (plasma proteins)	half-life at the catalytic site on the PDE enzyme (PDE5 enzyme)	further results
CCCc1nc(C)c2c(=O)[nH]c(-c3cc(S(=O)(=O)N4CCN(CC)CC4)ccc3OCC)nn12 [Batch 1, vardenafil hydrochloride trihydrate]	–	–	–	PSD by Laser diffraction Dv10 [1]: 0.5 μm; PSD by Laser diffraction Dv50 [1]: 1.8 μm; PSD by Laser diffraction Dv90 [1]: 4.5 μm; PSD by Laser diffraction Span [1]: 2.2
CCCc1nc(C)c2c(=O)[nH]c(-c3cc(S(=O)(=O)N4CCN(CC)CC4)ccc3OCC)nn12 [Batch 2, vardenafil hydrochloride trihydrate]	–	–	–	PSD by Laser diffraction Dv10 [1]: 0.7 μm; PSD by Laser diffraction Dv50 [1]: 2.9 μm; PSD by Laser diffraction Dv90 [1]: 5.5 μm; PSD by Laser diffraction Span [1]: 1.7
COc1ccc(CN=c2[nH]c(N3CCC[C@H]3CO)ncc2C(=O)NCc2ncccn2)cc1Cl [avanafil, (S)-4-[(3-chloro-4-methoxybenzyl)amino]-2-[2-(hydroxymethyl)-1-pyrrolidinyl]-N-(2-pyrimidinylmethyl)-5-pyrimidinecarboxamide]	2.6	99%	–	–
COc1ccccc1Oc1c(NS(=O)(=O)c2ccc(C(C)(C)C)cc2)nc(-c2ncccn2)nc1OCCO [bosentan]	3.7	98%	–	–
CCCCC[C@H](O)/C=C/[C@@H]1[C@H]2C/C(=C/CCCC(=O)O)O[C@H]2C[C@H]1O [epoprostenol, (5Z,9α,11α,13E,15S)-6,9-epoxy-11,15-dihydroxyprosta-5,13-dien-1-oic acid]	2.9	–	–	–
CC#CCC(C)[C@H](O)/C=C/[C@@H]1[C@H]2C/C(=C/CCCC(=O)O)C[C@H]2C[C@H]1O (stereo partly drawn) [iloprost, (E)-(3aS, 4R, 5R, 6aS)-hexahydro-5-hydroxy-4-[(E)-(3S,4RS)-3-hydroxy-4-methyl-1-octen-6-ynyl]-Δ^2(1H),Δ-pentalenevaleric acid]	4.8	–	–	duration of action [3]: about 30 min
CCCc1nn(C)c2c(=O)[nH]c(-c3cc(S(=O)(=O)N4CCN(C)CC4)ccc3OCC)nc12 [sildenafil, 1-[[3-(6,7-dihydro-1-methyl-7-oxo-3-propyl-1H-pyrazolo[4,3-d]pyrimidin-5-yl)-4-ethoxyphenyl]sulfonyl]-4-methylpiperazine]	–	96%	3 min	–
CN1CC(=O)N2[C@H](c3ccc4c(c3)OCO4)c3[nH]c4ccccc4c3C[C@@H]2C1=O [tadalafil, (6R,12aR)-2,3,6,7,12,12a-hexahydro-2-methyl-6-(1,3-benzodioxol-5-yl)-pyrazino[1′,2′:1,6]pyrido[3,4-b]indole-1,4-dione]	–	94%	7 min	–
CCCCC[C@H](O)CC[C@@H]1[C@H]2Cc3cccc(OCC(=O)O)c3C[C@H]2C[C@H]1O [treprostinil, (1R,2R,3aS,9aS)-[[2,3,3a,4,9,9a-hexahydro-2-hydroxy-1-[(3S)-3-hydroxyoctyl]-1H-benz[f]inden-5-yl]oxy]acetic acid]	4.1	–	–	oral bioavailability [4]: 18%
CCCc1nc(C)c2c(=O)nc(-c3cc(S(=O)(=O)N4CCN(CC)CC4)ccc3OCC)[nH]n12 [vardenafil, 1-[[3-(1,4-dihydro-5-methyl-4-oxo-7-propylimidazo[5,1-f][1,2,4]triazin-2-yl)-4-ethoxyphenyl]sulfonyl]-4-ethyl-piperazine]	–	93-95%	about 2 hr	safety and efficacy in PAH (human patients with PAH): safe and effective; tmax [5]: ≤ 2 min
